Measured values taken from patent US20090170867A1, “TRPV1 ANTAGONISTS INCLUDING SULFONAMIDE SUBSTITUENT AND USES THEREOF” (Shionogi & Co., Ltd., priority 2007, published 2009).

Columns and labels:
human TRPV1 [1] = biological target: T1, human TRPV1 (Homo sapiens, UniProt Q8NER1); test: Capsaicin-based assay, Protocol 2 (TRPV1/CHO cells, Fluo-4, FLIPR); format: cell-based; conditions: capsaicin 100 nM final, mean ± SEM, number of trials in parentheses, read-out: TRPV1 IC50 Potency, Human Capsaicin CHO (hCAP-CHO)
T1 construct: using primers designed surrounding the complete hTRPV1 open reading frame; expressed in transfected cells; host or cells: CHO-K1 cells stably transfected with pcDNA3.1(-)-hVR1 plasmid
T1 sequence (Q8NER1 whole entry): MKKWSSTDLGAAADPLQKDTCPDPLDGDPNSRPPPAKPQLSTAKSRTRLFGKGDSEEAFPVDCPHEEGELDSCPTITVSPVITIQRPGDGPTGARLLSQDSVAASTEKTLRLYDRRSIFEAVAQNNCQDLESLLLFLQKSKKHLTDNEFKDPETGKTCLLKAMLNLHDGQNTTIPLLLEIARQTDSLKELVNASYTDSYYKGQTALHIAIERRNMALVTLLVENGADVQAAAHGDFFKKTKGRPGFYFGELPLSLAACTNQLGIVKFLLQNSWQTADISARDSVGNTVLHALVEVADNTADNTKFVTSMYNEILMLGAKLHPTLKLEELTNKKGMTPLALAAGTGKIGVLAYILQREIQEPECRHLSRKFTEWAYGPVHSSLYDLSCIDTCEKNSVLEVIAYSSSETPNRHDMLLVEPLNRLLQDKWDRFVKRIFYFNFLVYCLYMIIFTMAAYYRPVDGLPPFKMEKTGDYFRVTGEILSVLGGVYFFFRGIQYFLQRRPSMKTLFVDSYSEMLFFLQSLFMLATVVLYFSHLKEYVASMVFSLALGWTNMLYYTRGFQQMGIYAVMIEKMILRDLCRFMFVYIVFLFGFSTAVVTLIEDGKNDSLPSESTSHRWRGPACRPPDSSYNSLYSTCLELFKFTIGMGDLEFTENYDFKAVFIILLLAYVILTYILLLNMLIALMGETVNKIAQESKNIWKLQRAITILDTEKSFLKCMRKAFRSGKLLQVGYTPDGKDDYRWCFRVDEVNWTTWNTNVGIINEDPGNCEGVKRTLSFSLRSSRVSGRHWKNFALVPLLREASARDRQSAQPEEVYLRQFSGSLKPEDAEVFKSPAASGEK
Text: The TRPV1/CHO cell line was generated as described below. […] The resulting PCR products were purified from agarose gels using Gel Band Purification Kit (GE Healthcare Bioscience) and were subcloned into pCR-Blunt vector (Invitrogen). The cloned cDNA was fully sequenced using a fluorescent dye-terminator reagent (BigDye Terminator ver3.1 Cycle Sequencing Kit, Applied Biosystems) and ABI Prism 3100 genetic analyzer (Applied Biosystems). The pCR-Blunt vector containing the hTRPV1 cDNA was subjected to restriction digestion with EcoRI. The restriction fragment was subcloned into expression vector pcDNA3.1 (-) (Invitrogen) and named pcDNA3.1 (-)-hVR1 plasmid. The sequence of the cDNA encoding TRPV1 is available at GenBank accession number AJ277028. […] The cells were transfected with the pcDNA3.1 (-)-hVR1 plasmid using FuGENE6 (Roche) according to the manufacturer's protocol. 24 hr after transfection, neomycin-resistant cells were selected using 1 mg/mL G418 (Nacalai Tesque). […] The cells expressing hTRPV1 were cultured in the growth medium supplemented with 1 mg/mL G418. […] Subsequently, the cells were loaded by incubation in 0.1 mL of wash buffer containing Fluo-4 at 3 μM final concentration. After 1 hour, the cells were washed twice with 0.2 mL wash buffer and resuspended in 0.1 mL wash buffer. The plates were then transferred to a Fluorescence Imaging Plate Reader (Molecular Devices). Fluorescence intensity was monitored for 15 seconds to establish a baseline. […] The final concentration of the compound was adjusted to range from 100 μM to 1.5625 μM. […] Data were collected over the entire time course and analyzed using Excel and the curve-fitting formula GraphPad Prism.

human TRPV1 [2] = biological target: T1, human TRPV1; test: pH-based assay, Protocol 2 (TRPV1/CHO cells, Fura-2 AM, FDSS-3000, pH 5.0-5.1); format: cell-based; conditions: H2SO4 agonist, mean ± SEM, number of trials in parentheses, read-out: TRPV1 IC50 Potency, Human pH CHO (hpH-CHO)
Text: For Protocol 2, a Chinese Hamster Ovary cell line (CHO) that has been engineered to constitutively express human recombinant TRPV1 was used (TRPV1/CHO cells). The TRPV1/CHO cell line was generated as described below.
The resulting PCR products were purified from agarose gels using Gel Band Purification Kit (GE Healthcare Bioscience) and were subcloned into pCR-Blunt vector (Invitrogen). The cloned cDNA was fully sequenced using a fluorescent dye-terminator reagent (BigDye Terminator ver3.1 Cycle Sequencing Kit, Applied Biosystems) and ABI Prism 3100 genetic analyzer (Applied Biosystems). The pCR-Blunt vector containing the hTRPV1 cDNA was subjected to restriction digestion with EcoRI. The restriction fragment was subcloned into expression vector pcDNA3.1 (−) (Invitrogen) and named pcDNA3.1 (−)-hVR1 plasmid. The sequence of the cDNA encoding TRPV1 is available at GenBank accession number AJ277028.
CHO-K1 cells were maintained in growth medium consisting of α-MEM, 10% FBS (Hyclone), and 100 IU/mL of penicillin-100 μg/mL of streptomycin mixed solution (Nacalai Tesque, Japan) at 37° C. in an environment of humidified 95% air and 5% CO2. The cells were transfected with the pcDNA3.1 (−)-hVR1 plasmid using FuGENE6 (Roche) according to the manufacturer's protocol. 24 hr after transfection, neomycin-resistant cells were selected using 1 mg/mL G418 (Nacalai Tesque). After 2 weeks, individual colonies were picked, expanded, and screened for the expression of hTRPV1 in the capsaicin-induced Ca^2+ influx assay (see below) with a FLIPR (Molecular Devices). A clone with the largest Ca^2+ response to capsaicin was selected and re-cloned by the same procedure. The cells expressing hTRPV1 were cultured in the growth medium supplemented with 1 mg/mL G418.
TRPV1/CHO cells were seeded in the 96-well clear-bottom black-wall plate (Nunc) at densities of 1-2×10^4 cells/well and grown in 100 μL of culture medium (alpha-MEM supplemented with 10% FBS, 20 mM HEPES, 1 mg/mL geneticin and 1% antibiotic-antimycotic mixed stock solution) for 1-2 days before the experiment.
Different agonist solutions with sulfuric acid concentrations of from 15 mM to 18 mM (see FIG. 1) were prepared by diluting 1M sulfuric acid with measuring buffer. The different sulfuric acid concentrations in the agonist solutions were selected such that a 1:4 dilution would result in a final sulfuric acid concentration of between 3.0 mM to 3.6 mM, respectively, as indicated in FIG. 1.
The cells were stimulated using 3.0 mM (well number B1-6), 3.1 mM (C1-6), 3.2 mM (D1-6), 3.3 mM (E1-6), 3.4 mM (F1-6), 3.5 mM (G1-6), or 3.6 mM (H1-6) H2SO4 or pH 7.2 measuring buffer without H2SO4 (A1-6) (FIG. 2).
(1) Culture medium was removed using an 8-channel-pipette (Rainin, USA) from the 96-well plate and the wells were refilled with 100 μL of loading buffer (20 mM HEPES, 115 mM NaCl, 5.4 mM KCl, 0.8 mM MgCl2, 1.8 mM CaCl2, 13.8 mM D-glucose, 2.5 mM probenecid, pH 7.4) containing 5 μM Fura-2 AM (Dojin, Japan).
(2) The 96-well plate was incubated at 37° C. for 45 min.
(3) The loading buffer was removed from each well. The cells were subsequently washed twice with 150 μL of measuring buffer (20 mM HEPES, 115 mM NaCl, 5.4 mM KCl, 0.8 mM MgCl2, 5.0 mM CaCl2, 13.8 mM D-glucose, 0.1% BSA, pH 7.4) (no probenecid). The wells were then refilled with 80 μL of measuring buffer.
(4) After an incubation at 4° C. for 15 min, the 96-well plate was transferred to FDSS-3000 (Hamamatsu Photonics, Japan).
(5) The Fura-2 fluorescent intensity was monitored at a wavelength of 340 nm and at 380 nm, respectively, at a rate of 0.5 Hz for a total of 240 seconds.

| SMILES | IC50 (human TRPV1 [1]) [nM] | IC50 (human TRPV1 [2]) [nM] |
| --- | --- | --- |
| O=C(Nc1ccc(C(F)(F)F)cn1)N1CC=C(c2ncccc2Cl)CC1 [Compound 201] | 131 | 185 |
| O=C(Nc1ccc(Cl)c(C(F)(F)F)c1)N1CCC(F)(c2ncc([C@H](O)CO)cc2Cl)CC1 [Compound T1] | 60.3 ± 19 | 29.7 ± 2.3 |
| O=C(Nc1ccc(OC(F)(F)F)cc1)N1CC=C(c2ncc(CO)cc2Cl)CC1 [Compound Q2] | 194 ± 27.1 | 85.9 ± 21.8 |
| O=C(Nc1ccc(OCC2CC2)c(C(F)(F)F)c1)N1CC=C(c2ncc(CO)cc2Cl)CC1 [Compound Y2] | 351 ± 69.8 | 59.9 ± 11.8 |
| CN(C)c1ccc(NC(=O)N2CC=C(c3ncc(CO)cc3Cl)CC2)cc1C(F)(F)F [Compound X1] | 74.4 ± 11.5 | 18.8 ± 1.6 |
| COCc1cnc(C2=CCN(C(=O)Nc3ccc(S(=O)(=O)C(F)(F)F)cc3)CC2)c(Cl)c1 [Compound A3] | 414 ± 99.6 | 310 ± 38.9 |
| CC(C)c1cc(NC(=O)N2CC=C(c3ncc([C@H](O)CO)cc3Cl)CC2)ccc1OC(F)(F)F [Compound B2] | 77.6 ± 12 | 40.5 |
| O=C(Nc1nc2ccc(Cl)cc2s1)N1CCC(F)(c2ncc([C@H](O)CO)cc2F)CC1 [Compound W3] | 35.6 ± 8.9 | 22.4 |
| O=C(Nc1ccc(S(=O)(=O)C(F)(F)F)cc1)N1CC=C(c2ncc(CO)cc2Cl)CC1 [Compound C2] | 98.7 ± 33.9 | 41.8 ± 3.8 |
| O=C(Nc1nc2ccc(Cl)cc2s1)N1CC=C(c2ncc([C@H](O)CO)cc2F)CC1 [Compound C4] | 66.2 ± 7.5 | 18.6 ± 2.8 |
| O=C(Nc1nc2ccc(F)cc2s1)N1CCN(c2ncc([C@H](O)CO)cc2Cl)CC1 [Compound V6, (S)-4-(3-chloro-5-(1,2-dihydroxyethyl)pyridin-2-yl)-N-(6-fluorobenzo[d]thiazol-2-yl)piperazine-1-carboxamide] | 16 ± 1.6 | 6.2 |
| O=C(Nc1ccc(C(F)(F)F)c(F)c1)N1CC=C(c2ncc(CO)cc2Cl)CC1 [Compound M2] | 156 ± 5.6 | 42 ± 9.1 |
| CC(C)(O)c1cnc(C2=CCN(C(=O)Nc3ccc(C(F)(F)F)c(F)c3)CC2)c(Cl)c1 [Compound E3] | 671 ± 133 | 141 ± 23.1 |
| O=C(Nc1ccc(OC(F)(F)F)cc1)N1CC=C(c2ncc([C@H](O)CO)cc2F)CC1 [Compound V1] | 66.3 ± 5.7 | 22.4 ± 1.1 |
| CC(C)(C)c1ccc(NC(=O)N2CC=C(c3ncc([C@H](O)CO)cc3F)CC2)cc1 [Compound D1] | 16.5 ± 4.1 | 0.9 |
| COCc1cnc(C2=CCN(C(=O)Nc3ccc(C(F)(F)F)cc3)CC2)c(Cl)c1 [Compound F3] | 916 ± 306 | 585 |

| SMILES | IC50 (human TRPV1 [1]) [nM] | IC50 (human TRPV1 [2]) [nM] |
| --- | --- | --- |
| O=C(Nc1ccc(C(F)(F)F)c(Cl)c1)N1CC=C(c2ncc([C@H](O)CO)cc2Cl)CC1 [Compound D2, (S)-3-Chloro-5-(1,2-dihydroxy-ethyl)-3′,6′-dihydro-2′H-[2,4′]bipyridinyl-1′-carboxylic acid (3-chloro-4-trifluoromethyl-phenyl)amide] | 85.3 ± 20.7 | 10.8 ± 0.9 |
| O=C(Nc1ccc(C(F)(F)F)cn1)N1CCC(F)(c2ncc([C@H](O)CO)cc2Cl)CC1 [Compound G1] | 31.3 ± 8.8 | 16.4 |
| O=C(Nc1ccc(S(=O)(=O)C(F)(F)F)cc1)N1CCC(F)(c2ncc([C@@H](O)CO)cc2Cl)CC1 [Compound B4] | 57.2 ± 11.6 | 5.8 ± 1.3 |
| COc1cc(NC(=O)N2CCC(F)(c3ncc([C@H](O)CO)cc3F)CC2)ccc1C(F)(F)F [Compound C5] | 108 ± 38.4 | 39.9 ± 7.9 |
| O=C(Nc1ccc(Cl)c(C(F)(F)F)c1)N1CCN(c2ncc([C@H](O)CO)cc2Cl)CC1 [Compound W6, (S)—N-(4-chloro-3-(trifluoromethyl)phenyl)-4-(3-chloro-5-(1,2-dihydroxyethyl)pyridin-2-yl)piperazine-1-carboxamide] | 32.9 ± 11.8 | 14.9 ± 2.2 |
| O=C(Nc1ccc(C(F)(F)F)cc1)N1CCC(F)(c2ncccc2Cl)CC1 [Compound 203] | 90.2 | 51.2 |
| CN1CCCc2ccc(NC(=O)N3CCN(c4ncc([C@H](O)CO)cc4Cl)CC3)cc21 [Compound H5] | 520 ± 88.6 | 516 ± 99.2 |
| O=C(Nc1ccc(C(F)(F)F)cc1)N1CCN(c2ncc([C@H](O)CO)cc2Cl)CC1 [Compound M6, (S)-4-(3-chloro-5-(1,2-dihydroxyethyl)pyridin-2-yl)-N-(4-(trifluoromethyl)phenyl)piperazine-1-carboxamide] | 7 ± 1 | 3.5 ± 1 |
| O=C(Nc1nc2ccc(F)cc2s1)N1CC=C(c2ncc(CO)cc2Cl)CC1 [Compound W2] | 245 ± 34.4 | 241 ± 34.9 |
| O=C(Nc1nc2ccc(Cl)cc2s1)N1CC=C(c2ncc([C@@H](O)CO)cc2Cl)CC1 [Compound P3] | 183 ± 38.1 | 28.5 |
| O=C(Nc1ccc(C(F)(F)F)cn1)N1CC=C(c2ncc([C@H](O)CO)cc2Cl)CC1 [Compound K1] | 35.1 ± 8.8 | 39.5 |
| Cc1ccc(NC(=O)N2CC=C(c3ncc([C@H](O)CO)cc3Cl)CC2)cc1C(F)(F)F [Compound I5] | 709 ± 94.1 | 118 ± 27.5 |
| O=C(Nc1ccc(C(F)(F)F)c(Cl)c1)N1CCC(F)(c2ncc([C@@H](O)CO)cc2Cl)CC1 [Compound T3] | 23.8 ± 6.8 | 12.9 |
| O=C(Nc1ccc(C(F)(F)F)cc1)N1CC=C(c2ncc([C@@H](O)CO)cc2Cl)CC1 [Compound L3] | 37.1 ± 14.8 | 38.3 ± 4 |
| O=C(Nc1ccc(OC(F)(F)F)cc1)N1CCN(c2ncc([C@H](O)CO)cc2Cl)CC1 [Compound L6, (S)-4-(3-chloro-5-(1,2-dihydroxyethyl)pyridin-2-yl)-N-(4-(trifluoromethoxy)phenyl)piperazine-1-carboxamide] | 14.2 ± 1.4 | 5.8 |
| CC(C)(O)c1cnc(C2=CCN(C(=O)Nc3nc4ccc(Cl)cc4s3)CC2)c(Cl)c1 [Compound B3] | 537 ± 62 | 106 ± 11.4 |
